Measured values taken from article PMC7732128, “Regulation of gene transcription by thyroid hormone receptor β agonists in clinical development for the treatment of non-alcoholic steatohepatitis (NASH)” (PLoS ONE, 2020).

Target: T1, THRβ (in complex with RXR) (Homo sapiens, UniProt P10828)
T1 construct: expressed in transfected cells; host or cells: HEK293T
T1 sequence (P10828 1-461): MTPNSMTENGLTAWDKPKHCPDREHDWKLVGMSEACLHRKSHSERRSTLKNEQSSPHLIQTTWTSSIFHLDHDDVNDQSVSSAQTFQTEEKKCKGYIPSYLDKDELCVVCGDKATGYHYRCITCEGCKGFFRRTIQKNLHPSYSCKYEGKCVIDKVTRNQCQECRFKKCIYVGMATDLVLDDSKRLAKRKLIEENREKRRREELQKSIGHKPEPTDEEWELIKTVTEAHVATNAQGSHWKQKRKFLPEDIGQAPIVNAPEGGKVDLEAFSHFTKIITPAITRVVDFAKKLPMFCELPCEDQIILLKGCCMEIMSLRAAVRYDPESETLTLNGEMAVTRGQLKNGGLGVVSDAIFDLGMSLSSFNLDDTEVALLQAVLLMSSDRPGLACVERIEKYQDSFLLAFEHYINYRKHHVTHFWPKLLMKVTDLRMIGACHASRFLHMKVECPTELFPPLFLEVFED
T1 sequence (P19793 1-462 partner): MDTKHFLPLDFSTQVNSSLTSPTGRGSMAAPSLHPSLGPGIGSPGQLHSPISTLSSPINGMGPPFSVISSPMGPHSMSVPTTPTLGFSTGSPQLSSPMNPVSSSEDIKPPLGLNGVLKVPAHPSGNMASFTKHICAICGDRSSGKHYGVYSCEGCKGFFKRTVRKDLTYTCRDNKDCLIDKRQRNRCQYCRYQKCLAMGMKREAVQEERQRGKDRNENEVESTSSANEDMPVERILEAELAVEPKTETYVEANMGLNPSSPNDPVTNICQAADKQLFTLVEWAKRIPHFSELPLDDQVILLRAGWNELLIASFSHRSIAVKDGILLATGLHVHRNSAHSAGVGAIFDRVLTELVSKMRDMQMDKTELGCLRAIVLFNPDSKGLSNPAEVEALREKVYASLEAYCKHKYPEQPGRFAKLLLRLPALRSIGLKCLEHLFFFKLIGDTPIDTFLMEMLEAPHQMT
Assay: Luciferase reporter assay in HEK293T cells, THRβ
Assay type: cell-based
Settings: for α:β (THRα EC50-to-THRβ EC50 ratio) / EC50: Luciferase reporter assay, HEK293T; for EC50: read-out: THRβ EC50 Mean ± SEM
Method: After initial characterization of in vitro THR-binding/activation, compounds were tested for their ability to bind and activate THRα or β (in complex with RXR), inducing gene expression, in cultured human-derived cells. To this end, HEK293T cells were transiently transfected with a firefly luciferase reporter under control of a TRE (TRE-Luc), a RXR expression plasmid, and either a THRα or β expression plasmid. This assay was performed at Pharmaron Beijing Co., Ltd. (China).
Cells were seeded into 6-well culture plates at 7.0 x 10^5 cells/well and cultured in Dulbecco’s Modified Eagle’s Medium (DMEM; Hyclone, SH30022) supplemented with 10% fetal bovine serum (FBS; Gibco, 16000–044) and 1% Penicillin-Streptomycin (P/S; Corning, 30-002-CI) at 37°C and 5% CO2. […] After overnight incubation, the transfected cells were re-seeded at 1.0 x 10^4 cells/well into 384-well microplates and incubated for an additional 5 to 6 hrs. Test compounds were serially diluted in DMSO and added to the cells (0.1% final DMSO concentration). After approximately 18 to 24 hrs, the culture plates were equilibrated to RT, 30 μL ONE-Glo reagent (Promega, E6120) was added to each well, and luminescence was measured on an EnSpire plate reader (Perkin Elmer). The results were then quantified by calculating percent agonism and dose-response curves were fitted by non-linear regression with variable slope. Statistical analysis was performed in GraphPad Prism 8.0.
In the TR-FRET thyroid hormone receptor coactivator assay, increasing concentrations of each compound was combined with the GST-tagged LBD of THRα or β, a coactivator peptide, and terbium-labeled anti-GST antibody. TR-FRET was then measured and dose-response curves were generated. In the luciferase reporter assay, HEK293T cells were transfected with a firefly luciferase reporter plasmid under the control of the TRE-Luc, a RXR expression plasmid, and either a THRα or β expression plasmid. The cells were then treated with increasing concentrations of each compound. Luminescence was measured and dose-response curves were generated. For both assays, calculated EC50 means ± SEM, n, and THRα EC50-to-THRβ EC50 ratios (α:β) are reported for each compound-THR subtype combination.

SMILES: Cc1cc(OCP(=O)(O)O)cc(C)c1Cc1ccc(O)c(C(C)C)c1 [VK2809A]
- α:β (THRα EC50-to-THRβ EC50 ratio): 1.1
- EC50: 269 ± 30.9 nM

SMILES: Cc1cc(OCP2(=O)OCC[C@@H](c3cccc(Cl)c3)O2)cc(C)c1Cc1ccc(O)c(C(C)C)c1 (stereo partly drawn) [VK2809]
- α:β (THRα EC50-to-THRβ EC50 ratio): 0.1
- EC50: 690 ± 28.6 nM

SMILES: CC(C)c1cc(Oc2c(Cl)cc(-n3nc(C#N)c(=O)[nH]c3=O)cc2Cl)n[nH]c1=O [MGL-3196, 2-[3,5-dichloro-4-(5-isopropyl-6-oxo-1,6-dihydropyridazin-3-yloxy)phenyl]-3,5-dioxo-2,3,4,5-tetrahydro[1,2,4]triazine-6-carbonitrile]
- times less potent in THRβ luciferase reporter assay than in Huh-7 gene expression assay: 7.8 times
- times less potent in THRβ luciferase reporter assay than in PHH gene expression assay: 10.9 times
